Measured values from patent publication US9212204B2, “Treatment of rett syndrome using glycyl-L-2-methylprolyl-L-glutamic acid” (priority 2011, dated 2015).
Non-standard residues stand in square brackets, D forms with d. Residues, ends and D or L forms follow the SMILES beside them. αMeP = C[C@@]1(C(=O)O)CCCN1

Key:
[1] = tested on: Tbx1 heterozygous, Cntnap2 knockout, Slc9a6 knockout and fmr1 knockout mice; assay: Genetic mouse models of ASD and Fragile X Syndrome; format: in vivo; conditions: 20 mg/kg/day i.p.
Experimental: Effects of G-2-MePE are further tested in the following genetic models of ASD: the Tbx1 heterozygous mouse, the Cntnap2 knockout mouse and the Sic9a6 knockout mouse. G-2-MePE is also tested in the fmr1 knockout mouse model of Fragile X Syndrome.
Animals in each of the above models are generated in accordance with the methodology described in the cited literature. Wild type equivalents are also obtained for each genetic model. Animals in each model are divided into three groups (n=10 to n=20): placebo treated wild type mice, mutant G-2-MePE-treated group and mutant placebo-treated control group.
The treatments are administered intraperitoneally: placebo (saline) or 20 mg/kg/day of G-2-MePE.

[2] = tested on: PCNA positive cells in the subventricular zone (SVZ); assay: PCNA staining, neuroblast proliferation in the subventricular zone; format: in vivo, rat; conditions: for number of PCNA positive cells in the SVZ: 3 days after treatment
Experimental: To carry out these studies, tissues were fixed and embedded in paraffin and sections obtained using standard methods. Coronal sections (6 μm) containing the level of the hippocampus were cut and mounted on chrome-alum-coated slides for staining. The sections were deparaffinized in xylene, dehydrated in a series of ethanol and incubated in 0.1 M phosphate buffered saline (PBS).
Primary antibodies against glial fibrillary acidic protein (GFAP) and proliferating cell nuclear antigen (PCNA) were used to mark reactive glial cells and cells undergoing apoptosis and proliferation, respectively. For antigen unmasking (caspase-3 and PCNA staining), sections were heated in 10 mM sodium citrate buffer (pH 6.0) for 1 min at high power. All sections were pretreated with 1% […] in 50% methanol for 30 min to quench the endogenous peroxidase activity. Then either 1.5% normal horse serum or 2.5% normal sheep serum in PBS was applied for 1 h at room temperature to block nonspecific background staining. The sections were then incubated with following primary antibodies: monoclonal mouse anti-GFAP antibody (Sigma, St. Louis, Mo., U.S.A. diluted 1:500); mouse anti-PCNA antibody (DAKA, A/S, Denmark, diluted 1:100). After incubation with primary antibodies at 4° C. for 2 d (except for PCNA staining which was incubated overnight) the sections were incubated with biotinylated horse anti-mouse or goat anti-rabbit secondary antibody (1:200, Sigma) at 4° C. overnight. The ExtrAvidin™ (Sigma, 1:200), which had been prepared 1 h before use, was applied for 3 h at room temperature, and then reacted in 0.05% 3,3-diaminobenzidine (DAB) and PBS to produce a brown reaction product. Sections were dehydrated in a series of alcohols to xylene and coverslipped with mounting medium.
Immunohistochemical staining was performed on brain samples taken from both control and G-2-MePE treated groups of young (4 months old), middle-aged (9 months old) and aged rats (18 months old).
Control sections were processed in the same way except the primary antibody was omitted from the incubation solution. The number of PCNA positive cells was counted in the subventricular zone and the GFAP positive cells was scored in the cerebral cortex.
The subventricular zone (SVZ) and the dentate gyrus (DG) are two brain regions hosting adult neurogenesis. […]
Eighteen month old male rats were treated intraperitoneally with single does of G2-MePE (doses of either 0, 0.012, 0.12. 1.2, 12 mg/kg). […] The number of PCNA positive cells was counted in the SVZ and the number of cells was then averaged as cells/mm depending on the length of ventricle wall used for counting (FIG. 19A). […]

[3] = tested on: heterozygous Shank3-deficient mice; assay: Shank3-deficient mouse model, behavioral analyses; format: in vivo; conditions: 15 or 60 mg/kg oral b.i.d. for 14 days
Source text: Heterozygous mice generated by crossing wild-type mice with heterozygotes are used in this example to best model the haploinsufficiency of Shank3, responsible for 22q13 deletion syndrome.
1 to 3 month old wild type and heterozygous Shank3-deficient mice are divided into 4 treatment groups: placebo treated wild-type, placebo treated Shank3-deficient group and two Shank3-deficient G-2-MePE treated groups. The animals are given placebo (water) or G-2-MePE formulated in water administered orally, b.i.d for 14 days. G-2-MePE is administered at two doses: 15 or 60 mg/kg.
Behavioral assessments are made at several, time points, and include analysis of social interactions and ultrasonic social communication, in line with the methodology described by Bozdagi et al. Briefly, male-female social interactions in each treatment group are evaluated. […] Videos from the male subjects are subsequently scored by an investigator uninformed of the subject's genotype and treatment group on measures of nose-to-nose sniffing, nose-to-anogenital sniffing and sniffing of other body regions, using Noldus Observer software (Noldus Information Technology, Leesburg, Va., USA). Ultrasonic vocalizations are identified manually by two highly trained investigators blinded to genotype/treatment group information, and summary statistics are calculated using the Avisoft package. […]

How did the “measures associated with the ASD phenotype” value [1] turn out when `C[C@@]1(C(=O)N[C@@H](CCC(=O)O)C(=O)O)CCCN1C(=O)CN` [Example G-2-MePE, Glycyl-L-2-methylprolyl-L-glutamic acid] (H-Gly-[αMeP]-Glu-OH) was run?
Its value is “significantly improves”.

What about the “number of PCNA positive cells in the SVZ” value ([2]; 1.2 mg/kg i.p., 9 month old rats, p<0.005) of the same compound?
Its value is “significant increase”.

And the “dose dependence of effect on neurogenesis” value ([2]; 0.012-12 mg/kg single i.p. dose, 18 month old rats)?
The value was “dose-dependent effect”.

What about the “number of PCNA positive cells in the SVZ” value ([2]; 12 mg/kg single i.p. dose, 18 month old rats, vs vehicle p<0.05) of the same compound?
Its value is “significant increase”.

And the “PCNA and doublecortin staining” value ([2]; highest dose, vs vehicle treated rat, FIG. 19B)?
The value was “increase”.

And the “cumulative duration of total social sniffing” value ([3]; vs placebo treated Shank3-deficient group)?
Its value is “significant increase”.

And the “number of ultrasonic vocalizations” value ([3]; vs placebo treated mutant group)?
The value was “increased number”.
